Assay results: US11530196B2, “Pyrimidine compound acting on EGFR and ERBB2” (CHINA RESOURCES PHARMACEUTICAL HOLDINGS COMPANY LIMITED, priority 2019, dated 2022)

What was measured:
[1] = target: Ba/F3 EGFR-V769_D770insASV (Homo sapiens, UniProt P00533, DUP767-769, cells depend on it); experiment: Anti-proliferation against Ba/F3 exon 20 insertion mutant cells (ASV); assay type: cell-based, mouse; details: CTG, 72 hours, read-out: Mutant cells IC50 (anti-proliferation)
Excerpt: RPMI1640 medium was purchased from Hyclone, FBS fetal bovine serum was purchased from GBICO, and trypsin-EDTA were both purchased from Giboco. DPBS was purchased from Corning, penicillin/streptomycin solution was purchased from Hyclone, and Cell-Titer Glo reagent was purchased from Promega (Cat. No. G7572). Ba/F3 EGFR-D770_N771insSVD, Ba/F3 EGFR-H773_V774insNPH, Ba/F3 EGFR-V769_D770insASV, BaF3 ERBB2 A775_G776 ins YVMA, the cell lines were constructed by Beijing Kang Yuan Bochuang Biotechnology Co., Ltd. Plate reading instrument: Envision (PerkinElmer).
Cells in logarithmic growth phase were harvested and cell counts were performed using a […]. Cell viability was detected by the Taipan Blue rejection assay. The cell concentration was adjusted; the cell suspension was added to a 96-well plate separately. Cells in 96-well plates were incubated overnight at 37° C., 5% CO2, and 95% humidity. […] The cell plate was placed at room temperature to stabilize the cold light signal, and the cold light values were read. The data were analyzed using GraphPad Prism 7.0 software, and a nonlinear S-curve regression was used to fit the data to derive the dose-effect curve from which the IC50 values were calculated. […]

[2] = tested on: LU0387 EGFR-H773_V774insNPH cells; experiment: Anti-proliferation activity test of LU-0387 cells; assay type: cell-based; details: Homo sapiens, 96 h, CTG, 4 days, read-out: Cell IC50 (anti-proliferation)
Description: (1) Anti-Proliferation Activity Test of LU-0387 (EGFR Exon 20 NPH Insertion Mutation) Cells
Fetal bovine serum FBS, CellTiter Glo® luminescent cell activity assay, 96-well clear flat-bottomed black-walled plate
A cell counter was used for cell counting, and cell viability was detected to ensure that the viability of each cell line was above 90%. Cell suspension was added to a 96-well plate to bring the cell density to the specified concentration and incubated overnight at 37° C., 5% CO2 and 95% humidity. The culture medium was added to the T0 plate, the CTG reagent was melted and the cell plate was equilibrated at room temperature. CTG solution was added to each well. The cell plate was vibrated to lyse the cells and the cold light values were read. The compound to be test and the control drug were diluted in a gradient to obtain a 10-fold solution. 10 μL of drug solution was added to each well of a 96-well plate that had been inoculated with cells. The incubation was continued at 37° C., 5% CO2, 95% humidity for 4 days, and CTG analysis was performed and cold light values were read separately. The data were analyzed using GraphPad Prism 5.0 software and IC50 values were calculated.
The IC50 data of the compounds of the present disclosure against EGFR exon 20 insertion mutation NPH in LU-0387 cells are shown in Table 4.

[3] = tested on: HuPrime lung cancer LU0387 subcutaneous xenograft tumor; experiment: HuPrime lung cancer LU0387 subcutaneous xenograft BALB/c nude mouse model; assay type: in vivo, BALB/c Nude mice
Description: The antitumor effects of the test drug in HuPrime® lung cancer LU0387 subcutaneous xenograft BALB/C nude mouse were evaluated.
BALB/c Nude mice, female, 7-8 weeks, HuPrime® lung cancer xenograft model LU0387 tumor-bearing mouse tumor tissue.
BALB/c nude mice were subcutaneously inoculated with HuPrime® model LU0387 tumor blocks to establish a human lung cancer subcutaneous transplantation tumor model. The test was divided into a solvent control group and a test drug group. The drug was administered by gavage, once daily for 21 days. Efficacy was evaluated based on relative tumor inhibition rate (TGI), and the safety was evaluated based on animal weight change and mortality.
Tumor diameters were measured with vernier calipers twice a week. The calculation formula of tumor volume was: V=0.5a×b^2, wherein a and b represented the long and short diameters of the tumor, respectively.
The antitumor efficacy of the compounds was evaluated by TGI (%) or relative tumor proliferation rate T/C (%).
Relative tumor proliferation rate T/C (%)=TRTV/CRTV×100% (TRTV: mean RTV in the treatment group; CRTV: mean RTV in the solvent control group).
The relative tumor volume (RTV) was calculated according to the results of tumor measurement. The calculation formula was RTV=Vt/V0, wherein V0 was the tumor volume measured at the time of group administration (i.e., D0), and Vt was the tumor volume corresponding to a certain measurement. TRTV and CRTV were taken on the same day.
TGI (%), reflecting the tumor growth inhibition rate. TGI (%)=[(1−(average tumor volume at the end of administration of a treatment group−average tumor volume at the beginning of administration of this treatment group))/(average tumor volume at the end of treatment in the solvent control group−average tumor volume at the beginning of treatment of the solvent control group)]×100%.

Sequence of Ba/F3 EGFR-V769_D770insASV (P00533 with tags, fused parts or gaps DUP767-769): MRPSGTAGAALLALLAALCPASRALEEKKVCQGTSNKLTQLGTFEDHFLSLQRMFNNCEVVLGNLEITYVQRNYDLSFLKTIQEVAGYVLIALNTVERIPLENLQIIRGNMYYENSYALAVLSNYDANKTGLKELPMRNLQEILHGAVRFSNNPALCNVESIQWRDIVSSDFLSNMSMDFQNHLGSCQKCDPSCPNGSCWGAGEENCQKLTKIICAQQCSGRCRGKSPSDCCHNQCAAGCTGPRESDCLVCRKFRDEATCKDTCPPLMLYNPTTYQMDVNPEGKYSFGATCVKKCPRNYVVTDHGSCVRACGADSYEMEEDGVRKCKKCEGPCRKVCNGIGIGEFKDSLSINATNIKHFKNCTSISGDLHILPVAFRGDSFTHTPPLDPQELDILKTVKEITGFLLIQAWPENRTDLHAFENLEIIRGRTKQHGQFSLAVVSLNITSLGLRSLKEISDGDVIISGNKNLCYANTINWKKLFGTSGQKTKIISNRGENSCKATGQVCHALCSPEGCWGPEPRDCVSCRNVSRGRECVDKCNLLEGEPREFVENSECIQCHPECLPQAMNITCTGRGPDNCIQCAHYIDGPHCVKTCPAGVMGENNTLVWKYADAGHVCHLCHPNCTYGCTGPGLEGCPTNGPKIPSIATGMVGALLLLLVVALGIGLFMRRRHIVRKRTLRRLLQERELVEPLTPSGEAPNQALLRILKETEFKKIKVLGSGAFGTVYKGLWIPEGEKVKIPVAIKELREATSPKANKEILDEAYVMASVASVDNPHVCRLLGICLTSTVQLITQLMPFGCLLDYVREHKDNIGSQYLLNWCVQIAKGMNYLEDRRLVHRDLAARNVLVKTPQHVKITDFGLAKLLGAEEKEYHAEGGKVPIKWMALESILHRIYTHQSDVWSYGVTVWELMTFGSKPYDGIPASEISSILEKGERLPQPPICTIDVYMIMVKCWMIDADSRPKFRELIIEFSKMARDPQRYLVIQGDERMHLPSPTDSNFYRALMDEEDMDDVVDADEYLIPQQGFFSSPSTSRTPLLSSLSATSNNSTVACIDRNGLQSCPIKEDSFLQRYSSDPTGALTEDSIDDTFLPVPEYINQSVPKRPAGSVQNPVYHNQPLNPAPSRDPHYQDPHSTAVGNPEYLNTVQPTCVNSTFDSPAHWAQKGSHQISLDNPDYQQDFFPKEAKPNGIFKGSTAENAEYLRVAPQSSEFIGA

GI50 [1]: 7 nM
IC50 [2]: 25.6 nM
Compound: C=CC(=O)Nc1cc(Nc2ncc(C(=O)OC(C)C)c(-c3cn(OC)c4ccccc34)n2)c(OC)cc1N(C)CCN(C)C.CS(=O)(=O)O [Compound 1]
Tumor volume (Day 0) ([3]; Day 0, mean ± standard error, n = 6): 122.13 ± 3.12 mm^3
RTV ([3]; Day 20, gavage once daily): 0.14 ± 0.08
T/C ([3]; Day 20, gavage once daily): 2%
TGI ([3]; Day 20, gavage once daily): 114%
Tumor volume (Day 20) ([3]; Day 20, gavage once daily): 16.97 ± 10.54 mm^3
